Experimental data taken from US20250382250A1, “STILBENE DERIVATIVE AS AHR AGONIST AND USE THEREOF” (NANJING GRITPHARMACO., LTD., priority 2022, published 2025).
Marks after values point to notes of the source that are not given here.

How the values were obtained:
[1] = system: atopic dermatitis; experiment: DNFB-induced atopic dermatitis mouse model (AD Score); format: in vivo, BALB/C mice; set-up: scale not given here; details: DNFB mice
Experimental: 56 clean-grade BALB/C mice aged 6-8 weeks were subjected to 5 days of adaptive feeding and then randomized into 7 groups of 8 mice each: • A. Blank control group • B. Modeling+solvent group • C. Modeling+blank matrix group • D. Modeling+positive drug mometasone furoate group • E. Modeling+1 wt % of benvitimod group • F. […] The animal experiments were conducted in accordance with the Experimental Animal Feeding, Management and Use Guidelines of China Pharmaceutical University and in compliance with animal study ethics and regulations. As shown in the above procedures, the solvent control or DNFB was given in the morning for modeling; from day 5, the test compound ointment was administered once every afternoon at 50 mg/dose evenly on the skin surface. The specific administration method is as shown above; Specific procedures: […] Severity of atopic dermatitis was scored using the AD Score criteria The severity of the appearance of dermatitis was evaluated based on 4 indicators: A. erythema/bleeding; B. dryness; C. effusion/crusting; D. edema.

[2] = system: IL4; experiment: Regulatory effect on cytokine secretion in PHA-stimulated PBMCs: IL4; format: cell-based; details: for IL4: PBMCs, 15 μg/mL PHA, 24 h (PHA group 9.42)
Experimental: (§1) • (1) Cells: […]; • (2) Cell plating and treatment: After the PBMCs were taken out from the liquid nitrogen tank and thawed, 80 μL of culture medium was added to a 96-well plate, and the cells were added at 200,000 cells/well. The culture media containing 2 μM or 0.2 μM compound 2 #, compound 6 #, or reference 1 # were added to the 96-well plate at 80 μL, at a final drug concentration of 1 μM or 0.1 μM per well. The plate was let stand for 1 h for pretreatment. After the pretreatment, the drug-containing medium was discarded, and 1 μM or 0.1 μM solution containing 15 μg/mL PHA (phytohemaggluyinin) was added at 80 μL/well. After 24 h of stimulation, the content of cytokines in the culture medium was detected. • Blank control group: The cells were treated with a normal culture medium with no drugs; • PHA group: A culture medium containing 15 μg/mL PHA but no compounds of the present disclosure was added at 80 μL/well.

[3] = biological target: T1, AhR (Homo sapiens, UniProt P35869); experiment: AhR agonism luciferase reporter gene assay in transfected HepG2 cells; format: cell-based; details: 16 h, ratio of treatment group to blank
T1 construct: expressed in transfected cells; host or cells: HepG2
T1 sequence (P35869 11-848): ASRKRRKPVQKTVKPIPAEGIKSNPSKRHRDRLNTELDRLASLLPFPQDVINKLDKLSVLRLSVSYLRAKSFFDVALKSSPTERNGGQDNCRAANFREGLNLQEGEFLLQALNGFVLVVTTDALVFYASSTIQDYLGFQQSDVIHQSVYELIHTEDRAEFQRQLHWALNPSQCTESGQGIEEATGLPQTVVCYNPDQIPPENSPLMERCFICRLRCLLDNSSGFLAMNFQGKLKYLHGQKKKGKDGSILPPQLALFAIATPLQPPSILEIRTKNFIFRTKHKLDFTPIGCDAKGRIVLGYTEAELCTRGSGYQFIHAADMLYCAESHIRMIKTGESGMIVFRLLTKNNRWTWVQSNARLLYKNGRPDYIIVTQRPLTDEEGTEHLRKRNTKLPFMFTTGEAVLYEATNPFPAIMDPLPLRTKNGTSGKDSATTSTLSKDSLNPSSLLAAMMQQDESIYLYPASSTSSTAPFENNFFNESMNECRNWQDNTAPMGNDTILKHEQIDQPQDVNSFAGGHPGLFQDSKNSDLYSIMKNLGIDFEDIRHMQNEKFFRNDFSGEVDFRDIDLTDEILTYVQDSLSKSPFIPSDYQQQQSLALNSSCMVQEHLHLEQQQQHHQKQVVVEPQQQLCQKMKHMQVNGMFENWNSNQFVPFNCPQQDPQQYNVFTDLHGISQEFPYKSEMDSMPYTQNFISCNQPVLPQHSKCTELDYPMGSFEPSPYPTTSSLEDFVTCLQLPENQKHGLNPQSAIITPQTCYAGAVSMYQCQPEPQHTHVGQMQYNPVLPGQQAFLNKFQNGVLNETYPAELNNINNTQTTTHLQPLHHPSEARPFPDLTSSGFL
Experimental: When the cell confluence reached 80%, the culture medium was replaced with a fresh one, and the transfection working solution was added for transfection overnight. The formula of the working solution is as follows: 1 mL of Opti-MEM+7.5 μg of pCMV-AHR+7.5 μg of pTK-3×DRE-Luc+30 μL of lipo6000. • (2) Cell plating: The transfected cells were digested, prepared into a cell suspension at a concentration of 3×10^5 cells/mL, and then plated on a 96-well plate at 100 µL/well for adherent culture overnight. • (3) Formulation
The prepared drug-containing culture media and a blank culture medium were added to the 96-well plate described above at 100 μL/well.

[4] = system: TNFa; experiment: Regulatory effect on cytokine secretion in PHA-stimulated PBMCs: TNFa; format: cell-based; details: for TNFa: PBMCs, 15 μg/mL PHA, 24 h (PHA group 3649.21)
Experimental: as §1

[5] = Ointment diffusion test, ex vivo rabbit skin; format: in vitro ADME; details: ointments: 2# 1.2 wt %, 6# 1.2 wt %, benvitimod 1.0 wt %, 32° C.
Experimental: (§2) Test compounds: compound 2 #ointment, 1.2 wt %; compound 6 #ointment, 1.2 wt %; benvitimod ointment, 1.0 wt %;
• (1) Preparation of ex vivo rabbit skin • (2) Preparation of receiving liquid: 100 mL of polyethylene glycol 400 solution was brought to a final volume of 250 mL with normal saline. The mixture was mixed well and stored at 4° C. Before each permeation in the receiving compartment, the system was preheated to 32° C. • (3) In vitro transdermal test: A drug transdermal diffusion apparatus was used to fix the processed rabbit skin between the supply and receiving compartments, with the stratum corneum facing the supply compartment. A constant temperature water bath circulation at 32° C. was maintained. The system was equilibrated for 30 min. Upon each replacement of the receiving liquid, the air at the lower layer was exhausted, and the liquid droplets on the skin surface were removed with paper. 0.5 g of the ointment was evenly smeared in the supply compartment. The system was stirred with a magnetic stirring at a rotation speed of 600 r/min. At 0.5, 1, 2, 3, 4, 5, 7, 9, 12, and 24 h, 1 mL of sample liquid was taken out from the receiving compartment and transferred into a liquid phase vial, and simultaneously, an equal amount of fresh receiving liquid at the same temperature was added. The liquid phase detection was conducted to calculate the drug permeation rate.

[6] = Drug permeation rate test, in vitro diffusion through semipermeable membrane; format: in vitro ADME; details: ointments: 2# 1.2 wt %, 6# 1.2 wt %, benvitimod 1.0 wt %, 32° C.
Experimental: as §2
[drawing 90] • (1) Preparation of semipermeable membrane: The semipermeable membrane, which had been prepared in advance, was taken out from the refrigerator; • (2) Preparation of receiving liquid: 100 mL of polyethylene glycol 400 solution was brought to a final volume of 250 mL with normal saline. The mixture was mixed well and stored at 4° C. Before each permeation in the receiving compartment, the system was preheated to 32° C.; • (3) In vitro diffusion test: A drug transdermal diffusion apparatus was used to fix the processed semipermeable membrane between the supply and receiving compartments. A constant temperature water bath circulation at 32° C. was maintained. The system was equilibrated for 30 min. Upon each replacement of the receiving liquid, the air at the lower layer was exhausted. About 0.5 g of the ointment was evenly smeared in the supply compartment. The system was stirred with a magnetic stirring at a rotation speed of 600 r/min. At 0.5, 1, 2, 4, 6, and 24 h, 1 mL of sample liquid was taken out from the receiving compartment, and simultaneously, an equal amount of fresh receiving liquid at the same temperature was added;
The sampling time points were 0.5, 1, 2, 4, 6, and 24 h, and 1 mL of sample was directly transferred into a liquid phase vial. Simultaneously, an equal amount of fresh receiving liquid at the same temperature was added. The liquid phase detection was conducted to calculate the drug permeation rate.

AhR receptor agonistic fold ([3]; drug concentration 0.1 μM): 6.1 ± 0.6 fold
AhR receptor agonistic fold ([3]; drug concentration 1 μM): 37.9 ± 6.9 fold
24-hour drug permeation rate (rank order) [5]: benvitimod >2 #>6 #
24-hour drug permeation rate (rank order) [6]: benvitimod >2 #>6 #
Compound: Oc1cc(/C=C/c2ccc(F)cc2)cc(O)c1C1CCCC1 [Compound 2, (E)-2-cyclopentyl-5-(4-fluorostyryl)-1,3-benzenediol]
Back AD score ([1]; day 0, before ointment treatment (from day 5)): 0.00 ± 0.00
Back AD score ([1]; day 4, before ointment treatment (from day 5)): 3.19 ± 0.75
Back AD score ([1]; day 6, ointment 50 mg once daily from day 5 (1.2 wt % 2#/6#, 1 wt % benvitimod)): 5.63 ± 1.96
Back AD score ([1]; day 8, ointment 50 mg once daily from day 5 (1.2 wt % 2#/6#, 1 wt % benvitimod)): 6.13 ± 1.96**^aab
Back AD score ([1]; day 10, ointment 50 mg once daily from day 5 (1.2 wt % 2#/6#, 1 wt % benvitimod)): 5.31 ± 1.87**^aab
IL4 ([2]; 0.1 μM): 5.19 pg/mL
inhibitory effect on IL4 relative to reference 1# (benvitimod) ([2]; 1 μM): 2 folds
IL4 ([2]; 1 μM): 4.30 pg/mL
TNFa ([4]; 0.1 μM): 1353.72 pg/mL
inhibitory effect on TNFa relative to reference 1# (benvitimod) ([4]; 1 μM): 2 folds
TNFa ([4]; 1 μM): 941.41 pg/mL
